Where “and” joins values, the source holds several entries; their conditions need not be identical. Equal entries are not always repeated.
Species: Rattus norvegicus
Experiment: DrugMatrix - Regimen: Daily Repeat
Type: toxicity, organism-based, Sprague-Dawley
Parameters: regimen Daily Repeat, gender Male, age 6-8 weeks
Settings: in vivo, po, 0 mg/kg, route oral GAVAGE, dose level Control, vehicle 100 % SALINE; for ABSOLUTE BASOPHIL / ABSOLUTE LYMPHOCYTE / ABSOLUTE SEGMENTED NEUTROPHIL / BASOPHIL / EOSINOPHIL / ERYTHROCYTE COUNT / HEMATOCRIT / HEMOGLOBIN / LEUKOCYTE COUNT / LYMPHOCYTE / MEAN CORPUSCULAR HEMOGLOBIN / MEAN CORPUSCULAR HEMOGLOBIN CONCENTRATION / MONOCYTE / NEUTROPHIL / NUCLEATED RED BLOOD CELLS / PLATELET COUNT / ABSOLUTE EOSINOPHIL / ABSOLUTE MONOCYTE: tissue Blood
[1] = 72 h, tissue Plasma, time 3 day
[2] = 120 h, tissue Plasma, time 5 day

For CN(C)C=O [DIMETHYLFORMAMIDE], the “ABSOLUTE BASOPHIL” value (72 h, time 3 day) was 0 CELLS/uL, the “ABSOLUTE LYMPHOCYTE” value (72 h, time 3 day) was 8960.83 CELLS/uL and 11922.83 CELLS/uL and the “ABSOLUTE SEGMENTED NEUTROPHIL” value (72 h, time 3 day) was 635.67 CELLS/uL and 1526.33 CELLS/uL. For the same compound, the BASOPHIL (72 h, time 3 day) was 0%, the EOSINOPHIL (72 h, time 3 day) was 0% and 0.5% and the “ERYTHROCYTE COUNT” value (72 h, time 3 day) was 5.09 x10E6/uL and 5.62 x10E6/uL. The HEMATOCRIT (72 h, time 3 day) was 31.8% and 37.17%, the HEMOGLOBIN (72 h, time 3 day) was 12.42 G/DL and 13.53 G/DL and the “LEUKOCYTE COUNT” value (72 h, time 3 day) was 9.7 x10E3/uL and 13.92 x10E3/uL. For the same compound, the LYMPHOCYTE (72 h, time 3 day) was 92.33% and 86.17%, the “MEAN CORPUSCULAR HEMOGLOBIN” value (72 h, time 3 day) was 24.4 pg and 24.07 pg and the “MEAN CORPUSCULAR HEMOGLOBIN CONCENTRATION” value (72 h, time 3 day) was 39.07 G/DL and 36.42 G/DL. The MONOCYTE (72 h, time 3 day) was 1% and 3%, the NEUTROPHIL (72 h, time 3 day) was 6.67% and 10.33% and the “NUCLEATED RED BLOOD CELLS” value (72 h, time 3 day) was 0 /100WBC. The “PLATELET COUNT” value (72 h, time 3 day) was 466.5 x10E3/uL and 1107 x10E3/uL, the “ALANINE AMINOTRANSFERASE” value [1] was 83.33 u/L and 45.33 u/L and the ALBUMIN [1] was 4.33 G/DL and 4.3 G/DL. The “ALKALINE PHOSPHATASE” value [1] was 340.5 u/L and 321.33 u/L, the “ASPARTATE AMINOTRANSFERASE” value [1] was 189.83 u/L and 77.33 u/L and the “BLOOD UREA NITROGEN” value [1] was 15.83 mg/dL and 14.33 mg/dL. The “CARBON DIOXIDE” value [1] was 38 mmol/L and 32.33 mmol/L, the CHLORIDE [1] was 96.83 MEQ/L and 99.67 MEQ/L and the CHOLESTEROL [1] was 72.5 mg/dL and 82.33 mg/dL. The “CREATINE PHOSPHOKINASE” value [1] was 370.67 u/L and 205.5 u/L, the CREATININE [1] was 0.28 mg/dL and 0.19 mg/dL and the GLUCOSE [1] was 182.83 mg/dL and 150.83 mg/dL. For the same compound, the LIPASE [1] was 9.83 u/L and 10.83 u/L, the PHOSPHORUS [1] was 11.32 mg/dL and 10.9 mg/dL and the SODIUM [1] was 145.12 MEQ/L and 145.15 MEQ/L. For the same compound, the “TOTAL BILIRUBIN” value [1] was 0.2 mg/dL and 0.12 mg/dL, the “TOTAL PROTEIN” value [1] was 6.4 G/DL and 6.22 G/DL and the “ABSOLUTE BASOPHIL” value (120 h, time 5 day) was 0 CELLS/uL. For the same compound, the “ABSOLUTE EOSINOPHIL” value (120 h, time 5 day) was 43.83 CELLS/uL, the “ABSOLUTE LYMPHOCYTE” value (120 h, time 5 day) was 7316.67 CELLS/uL and the “ABSOLUTE MONOCYTE” value (120 h, time 5 day) was 87.33 CELLS/uL. The “ABSOLUTE SEGMENTED NEUTROPHIL” value (120 h, time 5 day) was 418.83 CELLS/uL, the BASOPHIL (120 h, time 5 day) was 0% and the EOSINOPHIL (120 h, time 5 day) was 0.33%. For the same compound, the “ERYTHROCYTE COUNT” value (120 h, time 5 day) was 4.77 x10E6/uL, the HEMATOCRIT (120 h, time 5 day) was 29.93% and the HEMOGLOBIN (120 h, time 5 day) was 11.48 G/DL. The “LEUKOCYTE COUNT” value (120 h, time 5 day) was 7.87 x10E3/uL, the LYMPHOCYTE (120 h, time 5 day) was 93.5% and the “MEAN CORPUSCULAR HEMOGLOBIN” value (120 h, time 5 day) was 24.17 pg. For the same compound, the “MEAN CORPUSCULAR HEMOGLOBIN CONCENTRATION” value (120 h, time 5 day) was 38.57 G/DL, the MONOCYTE (120 h, time 5 day) was 1% and the NEUTROPHIL (120 h, time 5 day) was 5.17%. For the same compound, the “NUCLEATED RED BLOOD CELLS” value (120 h, time 5 day) was 0 /100WBC, the “PLATELET COUNT” value (120 h, time 5 day) was 377.67 x10E3/uL and the “ALANINE AMINOTRANSFERASE” value [2] was 89 u/L. The ALBUMIN [2] was 4.42 G/DL, the “ALKALINE PHOSPHATASE” value [2] was 275.17 u/L and the “ASPARTATE AMINOTRANSFERASE” value [2] was 204.17 u/L. The “BLOOD UREA NITROGEN” value [2] was 15.33 mg/dL, the “CARBON DIOXIDE” value [2] was 36.83 mmol/L and the CHLORIDE [2] was 94.67 MEQ/L. For the same compound, the CHOLESTEROL [2] was 92 mg/dL, the “CREATINE PHOSPHOKINASE” value [2] was 514.5 u/L and the CREATININE [2] was 0.24 mg/dL. For the same compound, the GLUCOSE [2] was 184.17 mg/dL, the “LACTATE DEHYDROGENASE” value [2] was 648.67 u/L and the LIPASE [2] was 10 u/L. The PHOSPHORUS [2] was 12.33 mg/dL, the SODIUM [2] was 144.63 MEQ/L and the “TOTAL BILIRUBIN” value [2] was 0.18 mg/dL. The “TOTAL PROTEIN” value [2] was 6.7 G/DL, the “ABSOLUTE BASOPHIL” value ([…], time 7 day) was 0 CELLS/uL and the “ABSOLUTE EOSINOPHIL” value ([…], time 7 day) was 22 CELLS/uL. For the same compound, the “ABSOLUTE LYMPHOCYTE” value ([…], time 7 day) was 11105.17 CELLS/uL, the “ABSOLUTE MONOCYTE” value ([…], time 7 day) was 258.17 CELLS/uL and the “ABSOLUTE SEGMENTED NEUTROPHIL” value ([…], time 7 day) was 881.33 CELLS/uL. For the same compound, the BASOPHIL ([…], time 7 day) was 0%, the EOSINOPHIL ([…], time 7 day) was 0.17% and the “ERYTHROCYTE COUNT” value ([…], time 7 day) was 5.29 x10E6/uL. The HEMATOCRIT ([…], time 7 day) was 34.03%, the HEMOGLOBIN ([…], time 7 day) was 13.67 G/DL and the “LEUKOCYTE COUNT” value ([…], time 7 day) was 12.27 x10E3/uL. The LYMPHOCYTE ([…], time 7 day) was 90.83%, the “MEAN CORPUSCULAR HEMOGLOBIN” value ([…], time 7 day) was 25.9 pg and the “MEAN CORPUSCULAR HEMOGLOBIN CONCENTRATION” value ([…], time 7 day) was 40.18 G/DL. For the same compound, the MONOCYTE ([…], time 7 day) was 2.17%, the NEUTROPHIL ([…], time 7 day) was 6.83% and the “NUCLEATED RED BLOOD CELLS” value ([…], time 7 day) was 0 /100WBC. For the same compound, the “PLATELET COUNT” value ([…], time 7 day) was 1159.83 x10E3/uL, the “ALANINE AMINOTRANSFERASE” value ([…], tissue Plasma, time 7 day) was 45.83 u/L and the ALBUMIN ([…], tissue Plasma, time 7 day) was 4.1 G/DL. The “ALKALINE PHOSPHATASE” value ([…], tissue Plasma, time 7 day) was 240 u/L, the “ASPARTATE AMINOTRANSFERASE” value ([…], tissue Plasma, time 7 day) was 88.67 u/L and the “BLOOD UREA NITROGEN” value ([…], tissue Plasma, time 7 day) was 13.67 mg/dL. For the same compound, the “CARBON DIOXIDE” value ([…], tissue Plasma, time 7 day) was 31.83 mmol/L, the CHLORIDE ([…], tissue Plasma, time 7 day) was 96.83 MEQ/L and the CHOLESTEROL ([…], tissue Plasma, time 7 day) was 71.17 mg/dL. For the same compound, the “CREATINE PHOSPHOKINASE” value ([…], tissue Plasma, time 7 day) was 202.5 u/L and the CREATININE ([…], tissue Plasma, time 7 day) was 0.22 mg/dL.

— ChEMBL document CHEMBL3885881, “DrugMatrix”
